In the test the target is BRS peptide (biotinylated peptide consisting of just the BRS of CD3 ε) (Mus musculus, UniProt P22646). Description: solid-phase ELISA, biotinylated peptide, streptavidin-HRP. The class given is binding. The following applies: PBS, room temperature, data not shown. For orientation: ELISA stands for enzyme-linked immunosorbent assay.

In the case of PI(4)P, for the setting “20/80 PI(4)P/PC coated on plate”, the equilibrium dissociation constant (Kd) (as a rule, the equilibrium constant for the complex coming apart) is approximately 40 nM.

In the case of PI(4,5)P2, the Kd (20/80 PI(4,5)P2/PC coated on plate) is approximately 40 nM.

The record behind these values is article PMC2954055 (Journal of immunology (Baltimore, Md. : 1950), 2009).
